# Molecular target: T1, human NEP (Homo sapiens, UniProt P08473)
# T1 construct: purchased R&D Systems, Minneapolis, MN 1182-ZN
# Assay: In vitro enzyme inhibition assay at human NEP (fluorogenic peptide substrate)
# Assay type: biochemical
# Conditions: recombinant human NEP; 10 μM fluorogenic substrate Mca-D-Arg-Arg-Leu-Dap-(Dnp)-OH; 37° C.; 30 minute preincubation; read-out: pKi value at human NEP (converted)
# Experimental: In Vitro Assays for the Quantitation of Inhibitor Potencies (IC50) at Human and Rat NEP, and Human ACE
# The inhibitory activities of compounds at human and rat neprilysin (EC 3.4.24.11; NEP) and human angiotensin converting enzyme (ACE) were determined using in vitro assays as described below.
# Recombinant human NEP and recombinant human ACE were obtained commercially (R&D Systems, Minneapolis, MN, catalog numbers 1182-ZN and 929-ZN, respectively). The fluorogenic peptide substrate Mca-D-Arg-Arg-Leu-Dap-(Dnp)-OH (Medeiros et al. (1997) Braz. J. Med. Biol. Res. 30:1157-62; Anaspec, San Jose, CA) and Abz-Phe-Arg-Lys(Dnp)-Pro-OH (Araujo et al. (2000) Biochemistry 39:8519-8525; Bachem, Torrance, CA) were used in the NEP and ACE assays respectively.
# The assays were performed in 384-well white opaque plates at 37° C. using the fluorogenic peptide substrates at a concentration of 10 μM in Assay Buffer (NEP: 50 mM HEPES, pH 7.5, 100 mM NaCl, 0.01% polyethylene glycol sorbitan monolaurate (Tween-20), 10 μM ZnSO4; ACE: 50 mM HEPES, pH 7.5, 100 mM NaCl, 0.01% Tween-20, 1 μM ZnSO4).
# Test compounds were assayed over the range of concentrations from 10 μM to 20 pM. Test compounds were added to the enzymes and incubated for 30 minute at 37° C. prior to initiating the reaction by the addition of substrate. Reactions were terminated after 20 minutes of incubation at 37° C. by the addition of glacial acetic acid to a final concentration of 3.6% (v/v).
# Plates were read on a fluorometer with excitation and emission wavelengths set to 320 nm and 405 nm, respectively. Inhibition constants were obtained by nonlinear regression of the data using the equation (GraphPad Software, Inc., San Diego, CA): ν=ν0/[1+(I/K′)] where ν is the reaction rate, ν0 is the uninhibited reaction rate, I is the inhibitor concentration and K′ is the apparent inhibition constant.
# T1 sequence (P08473 52-750 limits assumed): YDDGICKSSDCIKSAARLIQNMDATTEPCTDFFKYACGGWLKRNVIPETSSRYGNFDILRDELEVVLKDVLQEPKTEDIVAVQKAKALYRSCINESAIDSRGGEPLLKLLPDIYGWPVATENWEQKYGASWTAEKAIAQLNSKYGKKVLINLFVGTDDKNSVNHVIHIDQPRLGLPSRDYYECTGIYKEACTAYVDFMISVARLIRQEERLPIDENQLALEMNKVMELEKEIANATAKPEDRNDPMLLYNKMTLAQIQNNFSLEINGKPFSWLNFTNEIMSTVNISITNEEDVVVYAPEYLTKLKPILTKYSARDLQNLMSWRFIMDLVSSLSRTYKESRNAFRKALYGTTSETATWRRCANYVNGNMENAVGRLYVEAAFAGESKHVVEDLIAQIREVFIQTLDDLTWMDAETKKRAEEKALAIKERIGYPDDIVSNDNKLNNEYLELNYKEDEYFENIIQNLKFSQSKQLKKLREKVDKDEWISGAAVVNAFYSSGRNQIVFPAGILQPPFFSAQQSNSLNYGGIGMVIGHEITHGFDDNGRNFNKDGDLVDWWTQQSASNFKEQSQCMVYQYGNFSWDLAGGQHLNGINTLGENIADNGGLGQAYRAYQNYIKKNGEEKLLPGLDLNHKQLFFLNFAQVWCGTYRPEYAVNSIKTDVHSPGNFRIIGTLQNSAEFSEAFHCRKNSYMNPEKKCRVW
row,Ki [nM],SMILES
1,≤ 1,"CCOn1cc(C(=O)N[C@H](Cc2ccc(-c3cc(Cl)ccc3F)cc2)C[C@@](C)(CO)C(=O)O)nn1 [Example 4C, (2S,4R)-5-(5′-Chloro-2′-fluorobiphenyl-4-yl)-4-[(1-ethoxy-1H-[1,2,3]triazole-4-carbonyl)-amino]-2-hydroxymethyl-2-methylpentanoic Acid]"
2,≤ 1,"CC(C)C(=O)OC[C@](C)(C[C@@H](Cc1ccc(-c2ccccc2)cc1)NC(=O)c1cnn[nH]1)C(=O)O [Example 1E, (2S,4R)-5-Biphenyl-4-yl-2-isobutyryloxymethyl-2-methyl-4-[(3H-[1,2,3]triazole-4-carbonyl)amino]pentanoic Acid]"
3,≤ 1,"C[C@@](COCCO)(C[C@@H](Cc1ccc(-c2cccc(Cl)c2)cc1)NC(=O)c1c[nH]nn1)C(=O)O [Example 2L, (2S,4R)-5-(3′-Chlorobiphenyl-4-yl)-2-(2-hydroxyethoxymethyl)-2-methyl-4-[(1H-[1,2,3]triazole-4-carbonyl)amino]pentanoic Acid]"
4,≤ 1,"C[C@@](CO)(C[C@@H](Cc1ccc(-c2cc(Cl)ccc2Cl)cc1)NC(=O)c1c[nH]nn1)C(=O)O [Example 2F, (2S,4R)-5-(2′,5′-Dichlorobiphenyl-4-yl)-2-hydroxymethyl-2-methyl-4-[(1H-[1,2,3]triazole-4-carbonyl)amino]pentanoic Acid]"
5,≤ 1,"CCOC[C@](C)(C[C@@H](Cc1ccc(-c2cc(Cl)ccc2F)cc1)NC(=O)c1cc(CC)no1)C(=O)O [Example 6O, (2S,4R)-5-(5′-Chloro-2′-fluorobiphenyl-4-yl)-2-ethoxymethyl-4-[(3-ethylisoxazole-5-carbonyl)amino]-2-methylpentanoic Acid]"
6,≤ 1,CCOC[C@](C)(C[C@@H](Cc1ccc(-c2cccc(Cl)c2)cc1)NC(=O)c1cc(O)no1)C(=O)O [Example 6M]
7,3.16 to 10,"C[C@@](CO)(C[C@@H](Cc1ccc(-c2cccc(C#N)c2)cc1)NC(=O)c1c[nH]nn1)C(=O)O [Example 2H, (2S,4R)-5-(3′-Cyanobiphenyl-4-yl)-2-hydroxymethyl-2-methyl-4-[(1H-[1,2,3]triazole-4-carbonyl)amino]pentanoic Acid]"
8,3.16 to 10,"C[C@@](COCCO)(C[C@@H](Cc1ccc(-c2cc(Cl)ccc2F)cc1)NC(=O)c1cnn[nH]1)C(=O)O [Example 2S, (2S,4R)-5-(5′-Chloro-2′-fluorobiphenyl-4-yl)-2-(2-hydroxyethoxymethyl)-2-methyl-4-[(3H-[1,2,3]triazole-4-carbonyl)amino]pentanoic Acid]"
9,≤ 1,"CCCc1cc(C(=O)N[C@H](Cc2ccc(-c3cc(Cl)ccc3F)cc2)C[C@@](C)(CO)C(=O)O)on1 [Example 6J, (2S,4R)-5-(5′-Chloro-2′-fluorobiphenyl-4-yl)-2-hydroxymethyl-2-methyl-4-[(3-propylisoxazole-5-carbonyl)amino]pentanoic Acid]"
10,≤ 1,"CC(C)Cc1cc(C(=O)N[C@H](Cc2ccc(-c3cc(Cl)ccc3F)cc2)C[C@@](C)(CO)C(=O)O)[nH]n1 [Example 7F, (2S,4R)-5-(5′-Chloro-2′-fluorobiphenyl-4-yl)-2-hydroxymethyl-4-[(5-isobutyl-2H-pyrazole-3-carbonyl)amino]-2-methylpentanoic Acid]"
11,1 to 3.16,"COC[C@](C)(C[C@@H](Cc1ccc(-c2cccc(Cl)c2)cc1)NC(=O)c1c[nH]nn1)C(=O)O [Example 2J, (2S,4R)-5-(3′-Chlorobiphenyl-4-yl)-2-methoxymethyl-2-methyl-4-[(1H-[1,2,3]triazole-4-carbonyl)amino]pentanoic Acid]"
12,≤ 1,"COc1cc(C(=O)N[C@H](Cc2ccc(-c3cc(Cl)ccc3F)cc2)C[C@@](C)(CO)C(=O)O)on1 [Example 6G, (2S,4R)-5-(5′-Chloro-2′-fluorobiphenyl-4-yl)-2-hydroxymethyl-4-[(3-methoxyisoxazole-5-carbonyl)amino]-2-methylpentanoic Acid]"
13,1 to 3.16,"COC[C@](C)(C[C@@H](Cc1ccc(-c2ccccc2)cc1)NC(=O)c1c[nH]nn1)C(=O)O [Example 1J, (2S,4R)-5-Biphenyl-4-yl-2-methoxymethyl-2-methyl-4-[(1H-[1,2,3]triazole-4-carbonyl)amino]pentanoic Acid]"
14,10 to 100,"COC[C@](C)(C[C@@H](Cc1ccc(-c2cccc(Cl)c2)cc1)NC(=O)c1cc(OC)no1)C(=O)O [Example 6B, (2S,4R)-5-(3′-Chlorobiphenyl-4-yl)-4-[(3-methoxyisoxazole-5-carbonyl)amino]-2-methoxymethyl-2-methylpentanoic Acid]"
15,≤ 1,"C[C@@](CO)(C[C@@H](Cc1ccc(-c2ccccc2)cc1)NC(=O)c1cnn[nH]1)C(=O)O [(2S,4R)-5-biphenyl-4-yl-2-hydroxymethyl-2-methyl-4-[(3H-[1,2,3]triazole-4-carbonyl)amino]-pentanoic acid, reference compound]"
16,≤ 1,"C[C@@](COCCCO)(C[C@@H](Cc1ccc(-c2cccc(Cl)c2)cc1)NC(=O)c1c[nH]nn1)C(=O)O [Example 2M, (2S,4R)-5-(3′-Chlorobiphenyl-4-yl)-2-(3-hydroxypropoxymethyl)-2-methyl-4-[(1H-[1,2,3]triazole-4-carbonyl)amino]pentanoic Acid]"
17,≤ 1,"CCOc1cc(C(=O)N[C@H](Cc2ccc(-c3cc(Cl)ccc3F)cc2)C[C@@](C)(CO)C(=O)O)n[nH]1 [Example 7B, (2S,4R)-5-(5′-Chloro-2′-fluorobiphenyl-4-yl)-4-[(5-ethoxy-1H-pyrazole-3-carbonyl)-amino]-2-hydroxymethyl-2-methylpentanoic Acid]"
18,1 to 3.16,"CCCCCOC[C@](C)(C[C@@H](Cc1ccc(-c2cc(Cl)ccc2F)cc1)NC(=O)c1cnn[nH]1)C(=O)O [Example 2Q, (2S,4R)-5-(5′-Chloro-2′-fluorobiphenyl-4-yl)-2-methyl-2-pentyloxymethyl-4-[(3H-[1,2,3]triazole-4-carbonyl)amino]pentanoic Acid]"
19,1 to 3.16,"COc1ccccc1-c1ccc(C[C@H](C[C@@](C)(CO)C(=O)O)NC(=O)c2c[nH]nn2)cc1 [Example 2A, (2S,4R)-2-Hydroxymethyl-5-(2′-methoxybiphenyl-4-yl)-2-methyl-4-[(1H-[1,2,3]triazole-4-carbonyl)amino]pentanoic Acid]"
20,≤ 1,"CCOC[C@](C)(C[C@@H](Cc1ccc(-c2cc(Cl)ccc2F)cc1)NC(=O)c1cc(C(C)=O)[nH]n1)C(=O)O [Example 8C, (2S,4R)-4-[(5-Acetyl-1H-pyrazole-3-carbonyl)amino]-5-(5′-chloro-2′-fluorobiphenyl-4-yl)-2-ethoxymethyl-2-methylpentanoic Acid]"
21,≤ 1,"CCOC[C@](C)(C[C@@H](Cc1ccc(-c2cccc(Cl)c2)cc1)NC(=O)c1cnn[nH]1)C(=O)O [Example 2K, (2S,4R)-5-(3′-Chlorobiphenyl-4-yl)-2-ethoxymethyl-2-methyl-4-[(3H-[1,2,3]triazole-4-carbonyl)amino]pentanoic Acid]"
22,≤ 1,"C[C@@](COCCO)(C[C@@H](Cc1ccc(-c2cccc(Cl)c2)cc1)NC(=O)c1cc(O)no1)C(=O)O [Example 6L, (2S,4R)-5-(3′-Chlorobiphenyl-4-yl)-2-(2-hydroxyethoxymethyl)-4-[(3-hydroxyisoxazole-5-carbonyl)amino]-2-methylpentanoic Acid]"
23,≤ 1,"Cc1ccccc1-c1ccc(C[C@H](C[C@@](C)(CO)C(=O)O)NC(=O)c2c[nH]nn2)cc1 [Example 2C, (2S,4R)-2-Hydroxymethyl-2-methyl-5-(2′-methylbiphenyl-4-yl)-4-[(1H-[1,2,3]triazole-4-carbonyl)amino]pentanoic Acid]"
24,≤ 1,"CC(C)Cc1cc(C(=O)N[C@H](Cc2ccc(-c3cc(Cl)ccc3F)cc2)C[C@@](C)(CO)C(=O)O)on1 [Example 6I, (2S,4R)-5-(5′-Chloro-2′-fluorobiphenyl-4-yl)-2-hydroxymethyl-4-[(3-isobutylisoxazole-5-carbonyl)amino]-2-methylpentanoic Acid]"
25,≤ 1,"C[C@@](CO)(C[C@@H](Cc1ccc(-c2cccc(Cl)c2)cc1)NC(=O)c1c[nH]nn1)C(=O)O [Example 2D, (2S,4R)-5-(3′-Chlorobiphenyl-4-yl)-2-hydroxymethyl-2-methyl-4-[(1H-[1,2,3]triazole-4-carbonyl)amino]pentanoic Acid]"
26,≤ 1,"CCOC[C@](C)(C[C@@H](Cc1ccc(-c2cc(Cl)ccc2F)cc1)NC(=O)c1c[nH]nn1)C(=O)O [Example 2O, (2S,4R)-5-(5′-Chloro-2′-fluoro-biphenyl-4-yl)-2-ethoxymethyl-2-methyl-4-[(1H-[1,2,3]triazole-4-carbonyl)amino]pentanoic Acid]"

# — patent US11919888B2, “Neprilysin inhibitors” (THERAVANCE BIOPHARMA R&D IP, LLC, priority 2012, dated 2024)
